The target in test [1] is T1, OGT (Homo sapiens, UniProt O15294).
T1 construct: hOGT4.5 construct (spanning residues 313-1031 based on the numbering of the full length human protein); made in house
T1 sequence (O15294 313-1031 isoform O15294-3): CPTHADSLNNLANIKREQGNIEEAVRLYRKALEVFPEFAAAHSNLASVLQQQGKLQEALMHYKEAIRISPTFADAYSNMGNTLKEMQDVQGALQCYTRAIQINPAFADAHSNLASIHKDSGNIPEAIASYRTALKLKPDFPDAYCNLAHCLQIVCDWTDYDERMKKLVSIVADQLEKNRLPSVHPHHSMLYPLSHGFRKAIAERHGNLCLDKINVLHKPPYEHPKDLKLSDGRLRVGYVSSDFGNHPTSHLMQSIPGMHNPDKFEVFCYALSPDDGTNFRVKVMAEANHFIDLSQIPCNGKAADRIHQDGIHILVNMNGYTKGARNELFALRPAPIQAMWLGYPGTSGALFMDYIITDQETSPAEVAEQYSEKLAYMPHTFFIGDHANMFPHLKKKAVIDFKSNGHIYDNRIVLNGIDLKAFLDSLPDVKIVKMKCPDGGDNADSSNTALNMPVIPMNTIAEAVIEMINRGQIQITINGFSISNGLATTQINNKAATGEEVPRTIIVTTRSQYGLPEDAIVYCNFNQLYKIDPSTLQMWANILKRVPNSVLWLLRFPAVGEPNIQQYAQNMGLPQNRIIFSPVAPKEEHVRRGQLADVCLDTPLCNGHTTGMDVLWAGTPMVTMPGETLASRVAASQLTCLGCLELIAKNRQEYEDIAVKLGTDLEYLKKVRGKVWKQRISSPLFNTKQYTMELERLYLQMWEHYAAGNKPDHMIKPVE
Description: Western blot of BZX inhibitor treated cell lysates (O-GlcNAcylation by added OGT). The class given is biochemical. As to conditions: MCF-10A ErbB2 cell lysates; OGT 2 μM, UDP-GlcNAc 1 mM, BZX inhibitors 200 μM. The procedure:
[…] ErbB2 cells were maintained in DMEM/F12 (Invitrogen) supplemented with 5% horse serum (Invitrogen), 20 ng/ml EGF (Peprotech), 10 μg/ml insulin (Sigma), 100 ng/ml cholera toxin (Sigma), […] hydrocortisone (Sigma), 50 U/ml penicillin, and 50 μg/ml streptomycin (Invitrogen) to reach 70% confluence. The cells were then grown for another 9 hours in glucose starvation medium (DMEM-no glucose (Invitrogen) supplemented with 1% horse serum, 50 U/ml penicillin and 50 μg/ml streptomycin) before harvest. The cell lysates, prepared as described above, were divided into four tubes with each tube containing the same amount of protein. Nothing was added to tube I; OGT (2 μM) and DMSO (1%) were added into tube II; OGT (2 μM) and (2) (200 μM) were added to tube III; OGT (2 μM) and 1 (200 μM) were added to tube IV. The four samples were incubated at room temperature for 30 min before adding UDP-GlcNAc (1 mM) and incubated for another 2 hours. After incubation, all samples were analyzed with SDS-PAGE and a Western blot was carried out using the anti-O-GlcNAc antibody as described above.

Test [2] concerns the target T1, OGT. Description: Time-dependent inactivation of OGT with BZX compounds. Type of test: biochemical. An excerpt: Compound (1) was identified in a high-throughput screen of 65,000 compounds (FIG. 1). See, e.g., Gross et al., J. Am. Chem. Soc. (2005) 127:14588-14589. It contains a dicarbamate moiety that links two aromatic groups. This compound features a conjugated chemical structure and both carbamate carbonyls are potentially reactive. See, e.g., Alexander et al., Chem. Biol. (2005) 12:1179-1187. […] A small panel of related compounds was made from commercially available building blocks in order to identify structural features that might improve potency. Time-dependent inactivation studies were carried out in which OGT was preincubated with a three-fold excess of each compound for 5 min, and the mixture was then diluted 100-fold into buffer containing UDP-^14C-GlcNAc and the well-characterized peptide substrate, CKII. See, e.g., Kreppel et al., J. Biol. Chem. (1999) 274:32015-32022). Enzyme activity was measured using a previously developed peptide capture assay. See, e.g., Gross et al., J. Am. Chem. Soc. (2005) 127:14588-14589.
Each BZX compound (7.5 μM) was preincubated with 5 μM OGT in reaction buffer (125 mM NaCl, 1 mM EDTA, 20 mM potassium phosphate, pH 7.4, and 500 μM tris(hydroxypropyl)phosphine (THP)) at room temperature for different amount of time, then diluted 100-fold, mixed with substrates (6 μM UDP-^14C-GlcNAc and 500 μM CKII peptide (KKKYPGGSTPVSSANMM)) and allowed to react for another 2 h. Enzyme activity was tested with the peptide capture assay as previously reported. See, e.g., Gross et al., J. Am. Chem. Soc. (2005) 127:14588-14589. The final volume of each reaction was 20 μl, and the experiments were conducted in triplicate. The activities of OGT mutants were also tested in triplicate as previously reported. See, e.g., Gross supra.

Take `COc1ccc(OC(=O)n2c(=O)oc3cc(C(C)=O)ccc32)cc1` [Compound 2]: the “inhibition of OGT activity (O-GlcNAcylation) in cell lysates” value at OGT [1] is “more potent inhibitor of OGT activity than compound (1)”. Also, on OGT [2] (1.5:1 inhibitor:enzyme ratio), the “inactivation time course of OGT” value is recorded as “fully inactivated OGT”. Moreover, on OGT [2] (OGT 5 μM, compound 20 μM, UDP-GlcNAc 40 μM, 2-20 min), the “OGT inactivation in the presence of UDP-GlcNAc in the preincubation mixture” value is given as “UDP-GlcNAc reduced the rate of inactivation”. In addition, the “time to full inactivation of OGT” value on OGT [2] (near 1:1 ratio) is given as ≤ 5 min.

The record behind these values is patent publication US9573911B2, “Diphosphate mimetics and uses thereof” (President and Fellows of Harvard College, priority 2011, dated 2017).
